One compound from PubChem BioAssay AID1053161 (Broad Institute, 2014) can be followed below.

For the assay, the system named is HepG2 LDLR mRNA, qPCR, 6 h. The assay is described as follows: LDLR mRNA induction with sterol depletion, late-stage follow-up, mechanism study for Trib1 inducer project, cell-based, HepG2, RT-PCR, cherry-picked dose (AID 1053161). The conditions noted are these: stronger effect = higher value.

A word on the fold induction: it is the signal under treatment as a multiple of the control signal. Turning to `CN1C(=O)c2cc(NC(=O)c3ccc(C(F)(F)F)cc3)ccc2OC[C@@H]2O[C@H](CC(=O)NC3Cc4ccccc4C3)CC[C@@H]21`, the fold induction was 2.5.
